Experiment: T3 promoter assay cell test (luciferase reporter)
Format: cell-based
Details: Homo sapiens; HepG2 cells, luciferase induction, costimulator retinoic acid, incubation 48 or 72 hours
Description: The activity of the compounds according to the invention can be examined, for example, in vitro by the known T3 promoter assay cell test, described below:
The test is carried out using a stabily transfected human HepG2 hepatocarcinoma cell which expresses a luciferase gene under the control of a thyroid-hormone-regulated promoter. The vector used for transfection carries, upstream of the luciferase gene, a minimal thymidine kinase promoter with a thyroid-hormone-responsive element (TRE) comprising two inverted palindromes of in each case 12 bp and one 8 bp spacer.
For the test, the cell cultures are sown in 96-well plates in Eagle's Minimal Essential Medium, with the following additives: glutamine, tricine, [N-(tris-hydroxymethyl)-methyl)glycine], sodium pyruvate, non-essential amino acids (L-Ala, L-Asn, L-Asp, L-Pro, L-Ser, L-Glu, Gly), insulin, selenium and transferrin. The cultures are grown at 37° C. in a 10% CO2 atmosphere for 48 hours. Serial dilutions of test substance or reference compound (T3, T4) and the costimulator retinoic acid are then added to the test cultures, which are then incubated as above for a further 48 or 72 hours. […] To determine the luciferase, induced by T3 or other substances, the cells are then lyzed by addition of a triton- and luciferin-containing buffer (from Promega) and immediately measured luminometrically. For each compound, the EC50 is calculated. […]

EC50: 2 nM
Compound: Cc1cc(OCC(=O)O)cc(C)c1Cc1ccc(O)c(S(=O)(=O)c2ccc(F)cc2)c1 [Example 2, (4-{3-[(4-Fluorophenyl)sulphonyl]-4-hydroxybenzyl}-3,5-dimethylphenoxy)acetic acid]

From patent US6777442B2, “Diphenyl derivatives” (Bayer Aktiengesellschaft, priority 2001, dated 2004)
